Results reported in PubChem BioAssay AID248 (DTP/NCI, 2004).
Several values for one entry are separate records, joined by “and”; a condition that tells them apart may be missing. Equal entries are not always repeated. Inconclusive results and toxic doses are left out. No stated cut-off is given here; in the data, active means T/C of 150% or more; inactive means T/C below 125%.

System: L1210 leukemia ip in BDF1 mice, survival T/C
Assay: NCI In Vivo Anticancer Drug Screen. Data for tumor model L1210 Leukemia (intraperitoneal) in B6D2F1 (BDF1) mice
Settings: endpoint: mean survival time, higher = longer survival
Summary of the method: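 Antitumor effect is assessed in tumor-bearing animals. Survival in the compound arm is compared with a vehicle-dosed control arm and expressed as their quotient.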

[1] = dose: 100.0 mg/kg/injection, schedule: Q01DX001 (ip), vehicle: saline
[2] = dose: 200.0 mg/kg/injection, schedule: Q01DX001 (ip), vehicle: saline
[3] = dose: 400.0 mg/kg/injection, schedule: Q01DX001 (ip), vehicle: saline
[4] = dose: 50.0 mg/kg/injection, schedule: Q04DX002 (ip), vehicle: saline with Tween-80
[5] = dose: 100.0 mg/kg/injection, schedule: Q04DX002 (ip), vehicle: saline with Tween-80
[6] = dose: 200.0 mg/kg/injection, schedule: Q04DX002 (ip), vehicle: saline with Tween-80
[7] = dose: 100.0 mg/kg/injection, schedule: Q04DX003 (ip), vehicle: saline with Tween-80
[8] = dose: 100.0 mg/kg/injection, schedule: Q01DX009 (ip), vehicle: Klucel (hydroxypropylcellulose) (HPC)
[9] = dose: 200.0 mg/kg/injection, schedule: Q01DX009 (ip), vehicle: Klucel (hydroxypropylcellulose) (HPC)
[10] = dose: 400.0 mg/kg/injection, schedule: Q01DX009 (ip), vehicle: Klucel (hydroxypropylcellulose) (HPC)
[11] = dose: 100.0 mg/kg/injection, schedule: Q04DX003 (ip), vehicle: Klucel (hydroxypropylcellulose) (HPC)
[12] = dose: 200.0 mg/kg/injection, schedule: Q04DX003 (ip), vehicle: Klucel (hydroxypropylcellulose) (HPC)
[13] = dose: 400.0 mg/kg/injection, schedule: Q04DX003 (ip), vehicle: Klucel (hydroxypropylcellulose) (HPC)

Measured: T/C

CCC(O)C1CCCO1 (stereo not drawn)
inactive: dose: 25.0 mg/kg/injection, schedule: Q04DX002 (ip), vehicle: saline 103 % of control | dose: 50.0 mg/kg/injection, schedule: Q04DX002 (ip), vehicle: saline 92 % of control | [1] 104 % of control | dose: 100.0 mg/kg/injection, schedule: Q04DX002 (ip), vehicle: saline 103 % of control | [2] 95 % of control | [3] 93 % of control

Brc1ccc2c(c1)-c1cc(Br)ccc1C2
inactive: [4] 95 % of control | [5] 100 % of control | [6] 103 % of control | dose: 400.0 mg/kg/injection, schedule: Q04DX002 (ip), vehicle: saline with Tween-80 95 % of control

C=C(Cl)c1c(C)cc(C)cc1C
inactive: dose: 25.0 mg/kg/injection, schedule: Q01DX009 (ip), vehicle: saline with Tween-80 98 % of control | dose: 50.0 mg/kg/injection, schedule: Q01DX009 (ip), vehicle: saline with Tween-80 104 % of control | dose: 100.0 mg/kg/injection, schedule: Q01DX009 (ip), vehicle: saline with Tween-80 98 % of control and 88 % of control | [7] 97 % of control | dose: 200.0 mg/kg/injection, schedule: Q04DX003 (ip), vehicle: saline with Tween-80 86 % of control

Cc1cncc2c(=O)n(-c3ccccc3)n(C)c12
inactive: dose: 50.0 mg/kg/injection, schedule: Q01DX009 (ip), vehicle: Klucel (hydroxypropylcellulose) (HPC) 93 % of control | [8] 96 % of control

CCOc1c(Br)cc(Br)cc1C=C(C#N)C#N
inactive: dose: 25.0 mg/kg/injection, schedule: Q01DX009 (ip), vehicle: other 102 % of control | dose: 50.0 mg/kg/injection, schedule: Q01DX009 (ip), vehicle: other 98 % of control | dose: 100.0 mg/kg/injection, schedule: Q04DX003 (ip), vehicle: other 102 % of control | dose: 200.0 mg/kg/injection, schedule: Q04DX003 (ip), vehicle: other 108 % of control

C=CCc1c(C)cc(C)c(C)c1O
inactive: dose: 50.0 mg/kg/injection, schedule: Q01DX009 (sc), vehicle: olive oil, sesame oil, peanut oil 105 % of control | dose: 50.0 mg/kg/injection, schedule: Q04DX003 (sc), vehicle: olive oil, sesame oil, peanut oil 113 % of control | dose: 100.0 mg/kg/injection, schedule: Q01DX009 (sc), vehicle: olive oil, sesame oil, peanut oil 105 % of control | dose: 100.0 mg/kg/injection, schedule: Q04DX003 (sc), vehicle: olive oil, sesame oil, peanut oil 106 % of control | dose: 200.0 mg/kg/injection, schedule: Q01DX009 (sc), vehicle: olive oil, sesame oil, peanut oil 104 % of control | dose: 200.0 mg/kg/injection, schedule: Q04DX003 (sc), vehicle: olive oil, sesame oil, peanut oil 101 % of control

CC(=O)NC1CC(CO)C(O)C1O (stereo not drawn)
inactive: [1] 107 % of control | [2] 90 % of control | [3] 101 % of control

CCOc1ccccc1NC(=O)CC(C)=O
inactive: [8] 89 % of control | [9] 88 % of control | [10] 93 % of control

c1ccc2c(c1)ccc1nc3ccc4ccccc4c3cc12
inactive: dose: 5.0 mg/kg/injection, schedule: Q01DX001 (ip), vehicle: saline 86 % of control | dose: 20.0 mg/kg/injection, schedule: Q01DX001 (ip), vehicle: saline 97 % of control | dose: 40.0 mg/kg/injection, schedule: Q01DX001 (ip), vehicle: saline 95 % of control | dose: 80.0 mg/kg/injection, schedule: Q01DX001 (ip), vehicle: saline 97 % of control

N#C/C(=C\C1CCCCC1Cl)C1CCC([N+](=O)[O-])CC1 (stereo not drawn)
inactive: [4] 91 % of control | [5] 91 % of control | [6] 97 % of control

Cc1ccc(NC(=O)c2ccccc2)cc1Cl
inactive: [8] 98 % of control | [11] 106 % of control | [9] 95 % of control | [12] 101 % of control | [10] 96 % of control | [13] 97 % of control

c1ccc(-c2csnn2)cc1
inactive: dose: 200.0 mg/kg/injection, schedule: Q01DX001 (ip), vehicle: carboxymethylcellulose (CMC) 91 % of control | dose: 400.0 mg/kg/injection, schedule: Q01DX001 (ip), vehicle: carboxymethylcellulose (CMC) 115 % of control

Cc1c(CC(=O)O)c(=O)n(-c2ccccc2)n1C
inactive: dose: 75.0 mg/kg/injection, schedule: Q04DX003 (ip), vehicle: Klucel (hydroxypropylcellulose) (HPC) 105 % of control | dose: 150.0 mg/kg/injection, schedule: Q04DX003 (ip), vehicle: Klucel (hydroxypropylcellulose) (HPC) 101 % of control | dose: 300.0 mg/kg/injection, schedule: Q04DX003 (ip), vehicle: Klucel (hydroxypropylcellulose) (HPC) 104 % of control

ClC1CC2CCC1(Cl)C2 (stereo not drawn)
inactive: [8] 97 % of control | [11] 96 % of control | [9] 92 % of control | [12] 100 % of control | [10] 93 % of control | [13] 96 % of control

O=C(c1ccc(O)cc1)c1c[nH]c2c(O)ccc(O)c12
inactive: dose: 25.0 mg/kg/injection, schedule: Q04DX002 (ip), vehicle: saline + alcohol 98 % of control | dose: 50.0 mg/kg/injection, schedule: Q04DX002 (ip), vehicle: saline + alcohol 91 % of control

O=S(=O)(C(Br)Br)C(Br)c1ccccc1 (stereo not drawn)
inactive: [1] 93 % of control | [2] 101 % of control | [3] 87 % of control

CC(=O)NC1C(CO)OC(n2cnc3c(N)nc(Cl)nc32)C1O (stereo not drawn)
inactive: dose: 100.0 mg/kg/injection, schedule: Q01DX001 (ip), vehicle: Klucel (hydroxypropylcellulose) (HPC) 94 % of control | dose: 100.0 mg/kg/injection, schedule: Q01DX001 (ip), vehicle: saline with Tween-80 105 % of control | dose: 200.0 mg/kg/injection, schedule: Q01DX001 (ip), vehicle: Klucel (hydroxypropylcellulose) (HPC) 96 % of control | dose: 200.0 mg/kg/injection, schedule: Q01DX001 (ip), vehicle: saline with Tween-80 107 % of control | dose: 400.0 mg/kg/injection, schedule: Q01DX001 (ip), vehicle: Klucel (hydroxypropylcellulose) (HPC) 91 % of control | dose: 400.0 mg/kg/injection, schedule: Q01DX001 (ip), vehicle: saline with Tween-80 100 % of control

C=CCOC(=O)C1CC(C(=O)OCC=C)C(C(=O)OCC=C)C1C(=O)OCC=C (stereo not drawn)
inactive: [8] 100 % of control | [11] 91 % of control | [9] 92 % of control | [12] 100 % of control | [10] 92 % of control | [13] 96 % of control

CCCCCCCCCC(=O)N1C(C)CCC1C (stereo not drawn)
inactive: dose: 100.0 mg/kg/injection, schedule: Q04DX002 (ip), vehicle: other 103 % of control | dose: 200.0 mg/kg/injection, schedule: Q04DX002 (ip), vehicle: other 107 % of control

COc1ccc(C(C)=O)cc1OC
inactive: dose: 100.0 mg/kg/injection, schedule: Q01DX009 (ip), vehicle: saline sonified 92 % of control | dose: 200.0 mg/kg/injection, schedule: Q01DX009 (ip), vehicle: saline sonified 88 % of control | dose: 400.0 mg/kg/injection, schedule: Q01DX009 (ip), vehicle: saline sonified 100 % of control

O=C(CNC(=O)Nc1ccc(Cl)c(Cl)c1)NNC(=O)Nc1ccc(Cl)c([N+](=O)[O-])c1
inactive: [8] 97 % of control | [9] 97 % of control | [10] 93 % of control

c1ccc2c(c1)CC1c3ccccc3CC21 (stereo not drawn)
inactive: [1] 109 % of control | [2] 103 % of control | [3] 98 % of control

COC1=C(N2CC2)C(=O)c2ccccc2C1=O
inactive: dose: 25.0 mg/kg/injection, schedule: Q04DX003 (ip), vehicle: saline with Tween-80 109 % of control | dose: 50.0 mg/kg/injection, schedule: Q04DX003 (ip), vehicle: saline with Tween-80 101 % of control | [7] 101 % of control and 108 % of control
